What follows are compounds tested against C-Raf FL (full length CRAF with Y340E and Y341E activating mutations, co-expressed with h14-3-3 zeta) (Homo sapiens (Human), UniProt P04049, Y340E/Y341E) (assay: In vitro Raf activity determination, AlphaScreen p-MEK readout, c-Raf (C-Raf FL)). Conditions: c-Raf approximately 4 nM, ATP 1 μM, pre-incubation 60 minutes, reaction 1 hour.
Assay type: biochemical
Outline: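 Phosphorylation of kinase-dead biotinylated MEK1 (~10 nM) by C-Raf FL (~4 nM) read by AlphaScreen luminescence with anti-phospho-MEK1/2 after EDTA stop. ATP was 1 μM, with a 1 h reaction at room temperature. Compounds were pre-incubated with enzyme and substrate for 60 min in Tris/MgCl2 buffer, pH 7.5.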

Chain of C-Raf FL (full length CRAF with Y340E and Y341E activating mutations, co-expressed with h14-3-3 zeta) (P04049 whole entry Y340E/Y341E): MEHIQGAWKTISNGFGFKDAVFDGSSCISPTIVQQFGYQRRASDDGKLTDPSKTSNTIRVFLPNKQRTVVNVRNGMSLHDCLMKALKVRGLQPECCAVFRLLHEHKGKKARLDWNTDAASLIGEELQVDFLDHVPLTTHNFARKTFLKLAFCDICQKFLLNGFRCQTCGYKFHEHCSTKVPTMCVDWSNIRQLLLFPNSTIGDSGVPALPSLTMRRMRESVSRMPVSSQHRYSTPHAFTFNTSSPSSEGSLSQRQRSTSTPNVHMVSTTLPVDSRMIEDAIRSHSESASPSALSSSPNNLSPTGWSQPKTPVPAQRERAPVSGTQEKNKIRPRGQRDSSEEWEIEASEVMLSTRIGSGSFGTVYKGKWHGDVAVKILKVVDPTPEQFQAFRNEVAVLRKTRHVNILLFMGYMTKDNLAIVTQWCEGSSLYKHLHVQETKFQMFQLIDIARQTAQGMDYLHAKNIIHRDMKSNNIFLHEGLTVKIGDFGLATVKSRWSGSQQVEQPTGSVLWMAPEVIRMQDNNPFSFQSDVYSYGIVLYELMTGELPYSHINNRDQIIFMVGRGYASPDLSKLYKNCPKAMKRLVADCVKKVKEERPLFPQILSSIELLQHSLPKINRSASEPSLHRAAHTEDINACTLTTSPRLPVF
Chain of C-Raf FL (full length CRAF with Y340E and Y341E activating mutations, co-expressed with h14-3-3 zeta) (P63104 whole entry partner): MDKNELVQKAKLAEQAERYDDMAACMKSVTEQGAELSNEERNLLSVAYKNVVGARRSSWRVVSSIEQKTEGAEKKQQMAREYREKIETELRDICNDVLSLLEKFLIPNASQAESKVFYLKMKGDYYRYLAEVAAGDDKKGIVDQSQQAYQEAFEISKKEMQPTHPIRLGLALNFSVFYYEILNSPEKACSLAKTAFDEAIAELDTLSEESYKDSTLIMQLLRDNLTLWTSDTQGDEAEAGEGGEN

Row | Compound | IC50
1 | Cc1ccc(NC(=O)c2ccnc(C(C)(F)F)c2)cc1-c1ccc2c(c1)N1CCOCC1C(F)(CO)C2 (single isomer, unassigned) [Example 82, 2-(1,1-difluoroethyl)-N-(3-(5-fluoro-5-(hydroxymethyl)-1,2,4,4a,5,6-hexahydro-[1,4]oxazino[4,3-a]quinolin-9-yl)-4-methylphenyl)isonicotinamide] | 0.17 nM
2 | Cc1ccc(NC(=O)c2ccnc(C(C)(F)F)c2)cc1-c1ccc2c(c1)N1CCOCC1C(F)(CO)C2 (single isomer, unassigned) [Example 83, 2-(1,1-difluoroethyl)-N-(3-(5-fluoro-5-(hydroxymethyl)-1,2,4,4a,5,6-hexahydro-[1,4]oxazino[4,3-a]quinolin-9-yl)-4-methylphenyl)isonicotinamide] | 0.85 nM
3 | Cc1ccc(NC(=O)c2ccnc(C(F)(F)F)c2)cc1-c1cnc2c(c1)N1CCOCC1C(C)(C)C2O (single isomer, unassigned) [Example 334, N-(3-(6-hydroxy-5,5-dimethyl-1,2,4,4a,5,6-hexahydro-[1,4]oxazino[4,3-a][1,5]naphthyridin-9-yl)-4-methylphenyl)-2-(trifluoromethyl)isonicotinamide] | 0.4 nM
4 | Cc1ccc(NC(=O)c2ccnc(C(F)(F)F)c2F)cc1-c1cnc2c(c1)C1(C)CCOCCC1C(=O)N2CCO (single isomer, unassigned) [Example 354, 3-fluoro-N-(3-((5a,11b-trans)-7-(2-hydroxyethyl)-11b-methyl-6-oxo-1,2,4,5,5a,6,7,11b-octahydrooxepino[4,5-c][1,8]naphthyridin-10-yl)-4-methylphenyl)-2-(trifluoromethyl)isonicotinamide] | 0.3 nM
5 | Cc1ccc(NC(=O)c2ccnc(C(F)(F)F)c2)cc1-c1cnc2c(c1)C1(C)CCOCCC1C(=O)N2CCO (single isomer, unassigned) [Example 355, N-(3-((5a,11b-trans)-7-(2-hydroxyethyl)-11b-methyl-6-oxo-1,2,4,5,5a,6,7,11b-octahydrooxepino[4,5-c][1,8]naphthyridin-10-yl)-4-methylphenyl)-2-(trifluoromethyl)isonicotinamide] | 1.2 nM
6 | Cc1ccc(NC(=O)c2ccnc(C(F)(F)F)c2)cc1-c1cnc2c(c1)C1(C)CCOCCC1C(=O)N2CCO (single isomer, unassigned) [Example 356, N-(3-((5a,11b-trans)-7-(2-hydroxyethyl)-11b-methyl-6-oxo-1,2,4,5,5a,6,7,11b-octahydrooxepino[4,5-c][1,8]naphthyridin-10-yl)-4-methylphenyl)-2-(trifluoromethyl)isonicotinamide] | 0.1 nM
7 | Cc1ccc(NC(=O)c2cncc(C(F)(F)F)c2)cc1-c1cnc2c(c1)C1(C)CCOCCC1C(=O)N2CCO (single isomer, unassigned) [Example 358, N-(3-((5a,11b-trans)-7-(2-hydroxyethyl)-11b-methyl-6-oxo-1,2,4,5,5a,6,7,11b-octahydrooxepino[4,5-c][1,8]naphthyridin-10-yl)-4-methylphenyl)-5-(trifluoromethyl)nicotinamide] | 0.1 nM
8 | Cc1ncc(NC(=O)c2cccc(C(F)(F)F)c2)cc1-c1cnc2c(c1)C1(C)CCOCCC1C(=O)N2CCO (single isomer, unassigned) [Example 359, N-(5-((5a,11b-trans)-7-(2-hydroxyethyl)-11b-methyl-6-oxo-1,2,4,5,5 a,6,7,11b-octahydrooxepino[4,5-c][1,8]naphthyridin-10-yl)-6-methylpyridin-3-yl)-3-(trifluoromethyl)benzamide] | 0.3 nM
9 | CCN1C(=O)C2COCCN2c2cc(-c3cc(NC(=O)c4ccnc(C(F)(F)F)c4)ccc3C)cnc21 (stereo in doubt) [Example 114, (S)-N-(3-(6-Ethyl-5-oxo-1,2,4,4a,5,6-hexahydropyrido[2′,3′:5,6]pyrazino[2,1-c][1,4]oxazin-9-yl)-4-methylphenyl)-2-(trifluoromethyl)isonicotinamide] | 0.07 nM
10 | CCN1C(=O)C2COCCN2c2cc(-c3cc(NC(=O)c4ccnc(C(F)(F)F)c4)ccc3C)cnc21 (stereo in doubt) [Example 115, (R)-N-(3-(6-ethyl-5-oxo-1,2,4,4a,5,6-hexahydropyrido2′,3′:5,6]pyrazino[2,1-c][1,4]oxazin-9-yl)-4-methylphenyl)-2-(trifluoromethyl)isonicotinamide] | 0.011 nM
11 | CCN1C(=O)C2[C@H]3COC[C@H]3[C@@H]2c2cc(-c3cc(NC(=O)c4ccnc(C(F)(F)F)c4)ccc3C)cnc21 (stereo in doubt) [Example 268, N-(3-((6aS, 6bS, 9aS, 9bS)-5-ethyl-6-oxo-5,6,6a,6b,7,9,9a,9b-octahydrofuro[3′,4′: 3,4]cyclobuta[1,2-c][1,8]naphthyridin-2-yl)-4-methylphenyl)-2-(trifluoromethyl) isonicotinamide] | 0.3 nM
12 | CCN1C(=O)[C@@H]2COCC[C@@]2(C)c2cc(-c3cc(NC(=O)c4ccnc(C(C)(F)F)c4)ccc3C)cnc21 (stereo in doubt) [Example 343, 2-(1,1-difluoroethyl)-N-(3-((4a,10b-trans)6-ethyl-10b-methyl-5-oxo-2,4,4a,5,6,10b-hexahydro-1H-pyrano[3,4-c][1,8]naphthyridin-9-yl)-4-methylphenyl)isonicotinamide] | 0.2 nM
13 | CCN1C(=O)[C@H]2COCC[C@]2(C)c2cc(-c3cc(NC(=O)c4ccnc(C(C)(F)F)c4)ccc3C)cnc21 (stereo in doubt) [Example 344, 2-(1,1-difluoroethyl)-N-(3-((4a,10b-trans)6-ethyl-10b-methyl-5-oxo-2,4,4a,5,6,10b-hexahydro-1H-pyrano[3,4-c][1,8]naphthyridin-9-yl)-4-methylphenyl)isonicotinamide] | 0.1 nM
14 | CCN1C(=O)C2COCC[C@]2(C)c2cc(-c3cc(NC(=O)c4cncc(C(F)(F)F)c4)ccc3C)cnc21 (stereo in doubt) [Example 345, N-(3-((4a,10b-trans)-6-ethyl-10b-methyl-5-oxo-1,4,4a,5,6,10b-hexahydro-2H-pyrano[3,4-c][1,8]naphthyridin-9-yl)-4-methylphenyl)-5-(trifluoromethyl)nicotinamide] | 0.8 nM
15 | CCN1C(=O)C2COCC[C@@]2(C)c2cc(-c3cc(NC(=O)c4cncc(C(F)(F)F)c4)ccc3C)cnc21 (stereo in doubt) [Example 346, N-(3-((4a,10b-trans)-6-ethyl-10b-methyl-5-oxo-1,4,4a,5,6,10b-hexahydro-2H-pyrano[3,4-c][1,8]naphthyridin-9-yl)-4-methylphenyl)-5-(trifluoromethyl)nicotinamide] | 0.1 nM
16 | Cc1ccc(NC(=O)c2ccnc(C(C)(C)F)c2)cc1-c1cc2n(c(=O)c1)CCC1CCOCCN21 (stereo in doubt) [Example 418, (S)-2-(2-fluoropropan-2-yl)-N-(4-methyl-3-(9-oxo-1,2,5,5a,6,7-hexahydro-4H,9H-pyrido[2′,1′:2,3]pyrimido[1,6-d][1,4]oxazepin-11-yl)phenyl)isonicotinamide] | 2.1 nM
17 | CCOC(=O)c1c2n(c3cc(-c4cc(NC(=O)c5ccnc(C(F)(F)F)c5)ccc4C)ccc3c1=O)CCOC2 [Example 1, ethyl 9-(2-methyl-5-(2-(trifluoromethyl)isonicotinamido)phenyl)-6-oxo-1,2,4,6-tetrahydro-[1,4]oxazino[4,3-a]quinoline-5-carboxylate] | 0.045 nM
18 | Cc1ccc(NC(=O)c2ccnc(C(F)(F)F)c2)cc1-c1ccc2c(=O)c(C(=O)O)c3n(c2c1)CCOC3 [Example 2, 9-(2-methyl-5-(2-(trifluoromethyl)isonicotinamido)phenyl)-6-oxo-1,2,4,6-tetrahydro-[1,4]oxazino[4,3-a]quinoline-5-carboxylic Acid] | 0.136 nM
19 | Cc1ccc(NC(=O)c2ccnc(C(F)(F)F)c2)cc1-c1ccc2c(c1)N1CCOC[C@H]1C[C@H]2O [Example 4, N-(3-((4aR,6R)-6-hydroxy-1,2,4,4a,5,6-hexahydro-[1,4]oxazino[4,3-a]quinolin-9-yl)-4-methylphenyl)-2-(trifluoromethyl)isonicotinamide] | 0.0062 nM
20 | Cc1ccc(NC(=O)c2ccnc(C(F)(F)F)c2)cc1-c1ccc2c(c1)N1CCOC[C@@H]1C[C@@H]2O [Example 5, N-(3-((4aS,6S)-6-hydroxy-1,2,4,4a,5,6-hexahydro-[1,4]oxazino[4,3-a]quinolin-9-yl)-4-methylphenyl)-2-(trifluoromethyl)isonicotinamide] | 0.036 nM
21 | Cc1ccc(NC(=O)c2ccnc(C(C)(F)F)c2)cc1-c1ccc2c(c1)N1CCOC[C@H]1C[C@H]2O [Example 13, 2-(1,1-difluoroethyl)-N-(3-((4aR,6R)-6-hydroxy-1,2,4,4a,5,6-hexahydro-[1,4]oxazino[4,3-a]quinolin-9-yl)-4-methylphenyl)isonicotinamide] | 0.0055 nM
22 | Cc1ccc(NC(=O)c2ccnc(C(C)(F)F)c2)cc1-c1ccc2c(c1)N1CCOC[C@H]1C[C@@]2(C)O [Example 24, 2-(1,1-difluoroethyl)-N-(3-((4aR,6R)-6-hydroxy-6-methyl-1,2,4,4a,5,6-hexahydro-[1,4]oxazino[4,3-a]quinolin-9-yl)-4-methylphenyl)isonicotinamide] | 0.049 nM
23 | Cc1ccc(NC(=O)c2ccnc(C(C)(F)F)c2)cc1-c1ccc2c(c1)N1CCOC[C@@H]1C[C@]2(C)O [Example 25, 2-(1,1-difluoroethyl)-N-(3-((4aS,6S)-6-hydroxy-6-methyl-1,2,4,4a,5,6-hexahydro-[1,4]oxazino[4,3-a]quinolin-9-yl)-4-methylphenyl)isonicotinamide] | 0.52 nM
24 | COC1CC2COCCN2c2cc(-c3cc(NC(=O)c4ccnc(C(C)(F)F)c4)ccc3C)cnc21 (stereo not drawn) [Example 33, 2-(1,1-difluoroethyl)-N-(3-(6-methoxy-1,2,4,4a,5,6-hexahydro-[1,4]oxazino[4,3-a][1,5]naphthyridin-9-yl)-4-methylphenyl)isonicotinamide] | 0.0082 nM
